Read-outs that look alike come from different tables or passages of the source.
Key:
Glioma = test system: Glioma; set-up: method as in PMID 19046047; conditions: administered along with surgery and radiotherapy; cited from earlier work
[1] = Sulforhodamine B assay, Vero control cells; type: cell-based; conditions: African green monkey, Vero cells (normal kidney epithelial cells), SRB, read-out: Vero cell Line CC50
Method: (§1) In order to test the growth inhibition potential of the TMZ and Acridone derivatives on Glioma, the U-87 (Uppsala 87) Glioma cell lines and T-98 (Temozolomide resistant) Glioma cell lines were treated with Temozolomide (TMZ) and Acridone derivatives AC2, AC7, and AC26. The African Green Monkey Kidney Vero cell lines were used as control for the study. The Vero cell lines were obtained from the National Center for Cell Sciences (NCCS), Pune, while the U-87 and T-98 cell lines were carried in the lab of Dr. GJ Peters, Cancer Center Amsterdam (CCA), VU University Medical Center, Amsterdam, Netherlands. The Mycoplasma testing was done by using the Universal Mycoplasma Detection Kit (ATCC® 30-1012K™) every 6 months. The Vero cell lines have been used as control as they are normal kidney epithelial cells and are non-cancerous in nature. The Vero cell lines have been routinely used for testing cytotoxicity of small molecules by various researchers ([22], [23]). Also, in our previous study, Vero cell lines have been used for testing safety and efficacy of Acridone derivatives for Lung, Cervical, and Breast Cancer studies ([13]).
(§2) Cell viability was found using the Sulforhodamine B (SRB) assay to measure the cellular protein content which provides better sensitivity in comparison to MTT assay ([24]). Moreover, as this method is dependent on the property of the SRB dye, it acts by binding to proteins under slightly acidic conditions and can be exposed to basic conditions for its extraction. The resulting amount of bound dye is then utilized as a proxy for cell mass ([25]). This cell mass can then be extrapolated to measure cell growth.
Glioma cells were cultured in Gibco (RPMI 1640) complemented with 10% fetal calf serum (Gibco). The cultures were then treated with trypsin-EDTA in order to detach/separate the cells from their culture flasks. The quickly proliferating cells were harvested, counted and plated at suitable concentrations in 96-well microplates. These microplates were subsequently incubated for 24 h. After incubation, drug compounds were dissolved in the culture media and placed in 96 well plates in triplicates, which were again incubated at 37°C under 5% CO2 for 72 h. 72 h later, the plates were removed and the cells were treated with cold Trichloroacetic acid (TCA) to fix the cultures and. […] Thereafter, absorbance of the solution was measured at 540 nm utilizing a microplate reader. Absorbance readings (triplicate values) recorded were used to calculate percentage growth inhibition due to the effect of drugs using the following equations.
% Cell growth = Absorbance sample/Absorbance of control or untreated × 100 […]
The IC50 was calculated based on the log graph sheet which was developed in-house at the CCA, VU University Medical Center. […]

[2] = test system: U-87 (Uppsala 87) Glioma cell lines; experiment: Sulforhodamine B assay, U-87 drug sensitive Glioma cells; type: cell-based
Method: as §1, §2
(§3) Glioma cells were cultured in Gibco (RPMI 1640) complemented with 10% fetal calf serum (Gibco). The cultures were then treated with trypsin-EDTA in order to detach/separate the cells from their culture flasks. The quickly proliferating cells were harvested, counted and plated at suitable concentrations in 96-well microplates. These microplates were subsequently incubated for 24 h. After incubation, drug compounds were dissolved in the culture media and placed in 96 well plates in triplicates, which were again incubated at 37°C under 5% CO2 for 72 h. 72 h later, the plates were removed and the cells were treated with cold Trichloroacetic acid (TCA) to fix the cultures and. 0.4% of SRB dissolved in 1% acetic acid was then added to the culture in order to stain the cells. Next, the bound stain was dissolved in 150 μl of 10 mM unbuffered Tris base left on a gyrator shaker. Thereafter, absorbance of the solution was measured at 540 nm utilizing a microplate reader. Absorbance readings (triplicate values) recorded were used to calculate percentage growth inhibition due to the effect of drugs using the following equations.
(§4) % Cell growth = Absorbance sample/Absorbance of control or untreated × 100
(§5) % Growth inhibition = 100 - % cell growth
(§6) The IC50 was calculated based on the log graph sheet which was developed in-house at the CCA, VU University Medical Center.
(§7) Selectivity Index (SI) is a ratio that measures the window between cytotoxicity and anticancer activity of the drugs ([26]). […] Here, IC50 is the inhibition concentration for inhibiting 50% of cancer cells and CC50 is cytotoxic concentration causing death of 50% viable cells in the host.

[3] = set-up: method as in PMID 18971416; conditions: equation proposed by Levin-log permeability; cited from earlier work
[4] = test system: T-98 (Temozolomide resistant) Glioma cell lines; experiment: Sulforhodamine B assay, T-98 TMZ resistant Glioma cells; type: cell-based; conditions: for IC50: Glioma cell
Method: as §1, §2, §3, §4, §5, §6, §7

[5] = test system: Drug resistant cancer cells (CR), T-98; experiment: Mathematical tumor growth model simulation and Bliss synergy, drug resistant cancer cells
[6] = set-up: method as in PMID 20925470; conditions: high doses; cited from earlier work
[7] = SI = CC50 of Vero cell line /IC50 of Cancer cell line after 72 h

Compound: Cn1nnc2c(C(N)=O)ncn2c1=O [TMZ, 3-Methyl-4-oxo-3,4-dihydroimidazo[5,1-d][1,2,3,5]tetrazine-8-carboxamide]
- increase of survival advantage (Glioma): 2.5 times
- CC50 at 72 h [1]: 482 µM
- U-87/WT SI [2, 7]: 20.66
- Relative growth, experimental data for U-87 cell line ([2]; TMZ dose 0.5): 98.47%
- Relative growth, experimental data for U-87 cell line ([2]; TMZ dose 1): 97.76%
- Relative growth, experimental data for U-87 cell line ([2]; TMZ dose 2.5): 97%
- Relative growth, experimental data for U-87 cell line ([2]; TMZ dose 5): 94.93%
- Relative growth, experimental data for U-87 cell line ([2]; TMZ dose 10): 87.32%
- Relative growth, experimental data for U-87 cell line ([2]; TMZ dose 25): 50.41%
- Relative growth, experimental data for U-87 cell line ([2]; TMZ dose 50): 47.71%
- Relative growth, experimental data for U-87 cell line ([2]; TMZ dose 100): 40.87%
- IC50 ([2]; U87WT, 72 h, SRB, Mean ± Standard Deviations in Table 4, read-out: U-87/WT IC50): 23.3 ± 7.57 µM
- brain capillary permeability [3]: ~2.7 ×10⁻⁶ cm/s
- IC50 ([4]; 72 h, SRB, Mean ± Standard Deviations in Table 4, read-out: T-98/TMZRES IC50): > 100 µM
- IC50 ([4]; drug administered individually, drug resistant cells, read-out: Initial IC50): 190 µM
- T-98/TMZRES SI [4, 7]: 2.53
- Relative growth, experimental data for T-98 cell line ([4]; TMZ dose 0.5): 98.26%
- Relative growth, experimental data for T-98 cell line ([4]; TMZ dose 1): 97.74%
- Relative growth, experimental data for T-98 cell line ([4]; TMZ dose 2.5): 96.65%
- Relative growth, experimental data for T-98 cell line ([4]; TMZ dose 5): 95%
- Relative growth, experimental data for T-98 cell line ([4]; TMZ dose 10): 87.43%
- Relative growth, experimental data for T-98 cell line ([4]; TMZ dose 25): 61.98%
- Relative growth, experimental data for T-98 cell line ([4]; TMZ dose 50): 52.77%
- Relative growth, experimental data for T-98 cell line ([4]; TMZ dose 100): 50.87%
- % fold change [(final-initial)/initial]*100 ([5]; combination TMZ + AC2): 80.8%
- Fold change = final IC50/initial IC50 ([5]; combination TMZ + AC2): 0.19
- % fold change [(final-initial)/initial]*100 ([5]; combination TMZ + AC7): 75.68%
- Fold change = final IC50/initial IC50 ([5]; combination TMZ + AC7): 0.24
- Fold change = final IC50/initial IC50 ([5]; combination TMZ + AC26): 0.54
- dose leading to severe toxicity [6]: more than 250 μM
